According to US20050220779A1, “Integrin linked kinase modulation of macrophage activation” (priority 2001, published 2005):

Assays:
[1] = target: T1, integrin linked kinase (full-length recombinant GST-ILK) (Homo sapiens, UniProt Q13418); assay: ILK kinase inhibition assay (phosphocellulose filter, scintillation counting); type: biochemical
T1 construct: The target integrin linked kinase is a full-length recombinant protein expressed in sF9 insect cells; made in house; host or cells: baculovirus; virus amplified in Sf9, protein expressed in Hi5 insect cells
T1 sequence (Q13418 1-452): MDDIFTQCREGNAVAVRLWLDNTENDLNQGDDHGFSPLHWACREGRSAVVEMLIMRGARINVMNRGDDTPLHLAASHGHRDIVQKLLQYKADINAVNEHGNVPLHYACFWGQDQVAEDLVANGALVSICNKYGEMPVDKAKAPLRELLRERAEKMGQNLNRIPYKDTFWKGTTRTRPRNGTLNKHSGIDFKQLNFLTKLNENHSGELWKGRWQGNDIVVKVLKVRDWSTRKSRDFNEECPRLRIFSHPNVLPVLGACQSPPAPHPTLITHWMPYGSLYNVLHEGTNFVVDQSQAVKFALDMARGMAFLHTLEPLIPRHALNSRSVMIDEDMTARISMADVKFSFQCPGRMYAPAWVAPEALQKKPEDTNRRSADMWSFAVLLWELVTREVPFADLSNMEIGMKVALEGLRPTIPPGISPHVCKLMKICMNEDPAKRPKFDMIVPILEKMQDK
Description: Inhibition Assay: Compounds were received in lyophilized form and stored at −20° C. Stock solutions were made by weighing out the compounds and dissolving them in dimethyl sulfoxide (DMSO) to a standard concentration, usually 20 mM, and stored at −20° C. […] Diluted 100% DMSO was used as a negative control.
5 μl of each compound dilution were robotically pipetted to Costar serocluster plates maintaining the same plate format. All assays consisted of the following volumes: • 5 μl diluted compound • 10 μl enzyme preparation • 5 μl substrate • 5 μl assay ATP and were then incubated 15 min at room temperature.
From each reaction, 10 μl of reaction mix was spotted onto Millipore Multiscreen-PH opaque plates and washed 2×10 min in 1% phosphoric acid. The plates were dried for at 40° C. for 30 min, then the substrate phosphate complexes were quantitated by scintillation counting. These Millipore plates are in a 96 well format with immobilized P81 phosphocellulose membranes. Both the phosphorylated and non-phosphorylated form of the substrate bind to the membrane while ATP (unincorporated phosphate) is removed in the subsequent wash steps.
Integrin Linked Kinase: The target integrin linked kinase is a full-length recombinant protein expressed in sF9 insect cells by baculovirus infection. The ILK1 substrate is […]-amide.
Recombinant ILK protein was expressed using cultured insect cells and a baculovirus expression system.
A large scale plasmid preparation of the resulting transfer construct was made using a Qiagen Plasmid Midi Kit. This ILK transfer construct was then co-transfected with BaculoGold DNA (Pharmingen) into Sf9 insect cells (Invitrogen) and a high titre preparation of GST-ILK recombinant baculovirus was produced by amplification in Sf9 cells. Liter scale expression of GST-ILK recombinant protein was done in 1000 ml spinner flasks (Bellco) by infection of Hi5 insect cells (invitrogen) grown in Ex-Cell 400 Serum Free Media (JRH Biosciences) at a multiplicity of infection of approximately 5. The cells were harvested three days after infection and lysed in Hypotonic Lysis Buffer (HLB; 10 mM imidazole, 5 mM EDTA, 0.1% β-mercaptoethanol, 10 ug/ml PMSF, 1 mM benzamidine) by sonication. The lysate was centrifuged at 10,000×g for 20 min and the supernatant was discarded. The pellet was washed twice in HLB and then washed twice in High Salt Buffer (HSB; 500 mM NaCl, 10 mM imidazole, 5 mM EDTA, 0.1% β-mercaptoethanol, 10 ug/mI PMSF, 1 mM benzamidine). The pellet was then resuspended in DNAse-ATP Buffer (DAB; 10 mM MgCl2, 1 mM MnCl2, β-methyl aspartic acid, 2 mM NaF, 0.55 mg/ml ATP, 1 ug/ml DNAse l, 1% NP-40, 10 mM imidazole, 5 mM EDTA, 0.1% β-mercaptoethanol, 10 ug/ml PMSF, 1 mM benzamidine) and stirred for 30 min at room temperature, and then centrifuged at 10,000×g for 20 min. The pellet was resuspended in High Salt Detergent buffer (HDB; 1% NP-40, 1% Triton X-100, 500 mM NaCl, 10 mM imidazole, 5 mM EDTA, 0.1% β-mercaptoethanol, 10 ug/ml PMSF, 1 mM benzamidine), stirred for 30 min at room temperature, and then centrufuged at 10,000×g for 20 min. The pellet was then washed once in each of HDB, HSB, and HLB, centrifuging at 10,000×g each time. Finally, the pellet was resuspended in HLB.

[2] = test system: HUVEC cells; assay: In vitro Matrigel morphogenesis (tube formation) assay of VEGF stimulated HUVEC cells; type: cell-based, human; conditions: 100 mM (so in the source)
Description: In Vitro Angiogenesis. […] After 5 hours of incubation in a 5% CO2-humidified atmosphere at 37 °C, the three-dimensional organization of the cells was examined using an inverted photomicroscope. The cells were fixed with Crystal Violet (0.05% in 20% ethanol) and digitally photographed.
To determine the anti-angiogenic properties of ILK inhibitors, an in vitro Matrigel morphogenesis assay was established. This assay evaluates the ability of endothelial cells to differentiate into capillary-like structures, a crucial step during neovascularization. HUVEC cells when stimulated with VEGF and seeded onto Matrigel rapidly attach to the matrix and begin to migrate and interact with the extracellular matrix proteins present in the Matrigel. […] These capillary-like structures can be assessed by histology (FIG. 2). Samples are cut on a cross section and subsequent viewed using an electron microscope. Typically, cylindrical formations with a lumen are observed. A distinct difference in the morphology of tube formation on Matrigel, compared to other in vitro angiogenesis assays is a reduction in the proliferation of endothelial cells. […] Using this model system, both inhibitors and stimulators of angiogenesis can be assessed prior to in vivo testing.
The assay was established and reproducibility confirmed. SU5416, shown to inhibit angiogenesis in other assays, was also evaluated. […]

[3] = target: SRC (Homo sapiens, UniProt P12931); assay: Protein kinase selectivity, SRC; type: biochemical
[4] = target: GSK3β (Homo sapiens, UniProt P49841); assay: Protein kinase selectivity, GSK3β; type: biochemical
[5] = target: CDC2 (Homo sapiens, UniProt P06493); assay: Protein kinase selectivity, CDC2; type: biochemical
[6] = target: CK2 (Homo sapiens, UniProt P68400); assay: Protein kinase selectivity, CK2; type: biochemical
[7] = target: ERK1 (Homo sapiens, UniProt P27361); assay: Protein kinase selectivity, ERK1; type: biochemical
Chain of ERK1 (P27361 whole entry, species assumed): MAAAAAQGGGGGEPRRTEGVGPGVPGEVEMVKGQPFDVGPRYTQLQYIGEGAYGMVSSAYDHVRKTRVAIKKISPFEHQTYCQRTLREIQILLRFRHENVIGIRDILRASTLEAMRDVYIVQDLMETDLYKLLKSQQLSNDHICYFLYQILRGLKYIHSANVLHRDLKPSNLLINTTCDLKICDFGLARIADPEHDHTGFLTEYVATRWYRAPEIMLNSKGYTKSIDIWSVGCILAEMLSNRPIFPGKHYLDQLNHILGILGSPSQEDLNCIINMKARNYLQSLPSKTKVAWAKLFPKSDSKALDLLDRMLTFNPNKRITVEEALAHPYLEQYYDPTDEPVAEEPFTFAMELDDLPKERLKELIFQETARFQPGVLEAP

Chain of GSK3β (P49841 whole entry, species assumed): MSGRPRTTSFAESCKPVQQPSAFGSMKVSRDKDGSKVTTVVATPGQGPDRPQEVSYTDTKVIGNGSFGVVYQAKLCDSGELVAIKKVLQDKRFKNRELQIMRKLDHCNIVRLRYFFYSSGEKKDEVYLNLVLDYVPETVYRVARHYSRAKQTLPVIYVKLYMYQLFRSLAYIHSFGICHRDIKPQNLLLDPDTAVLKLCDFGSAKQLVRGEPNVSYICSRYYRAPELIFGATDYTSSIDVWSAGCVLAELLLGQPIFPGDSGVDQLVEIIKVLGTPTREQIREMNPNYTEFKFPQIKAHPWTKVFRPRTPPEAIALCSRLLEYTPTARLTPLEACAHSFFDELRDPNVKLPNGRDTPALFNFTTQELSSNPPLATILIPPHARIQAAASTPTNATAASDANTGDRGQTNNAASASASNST
Chain of SRC (P12931 whole entry, species assumed): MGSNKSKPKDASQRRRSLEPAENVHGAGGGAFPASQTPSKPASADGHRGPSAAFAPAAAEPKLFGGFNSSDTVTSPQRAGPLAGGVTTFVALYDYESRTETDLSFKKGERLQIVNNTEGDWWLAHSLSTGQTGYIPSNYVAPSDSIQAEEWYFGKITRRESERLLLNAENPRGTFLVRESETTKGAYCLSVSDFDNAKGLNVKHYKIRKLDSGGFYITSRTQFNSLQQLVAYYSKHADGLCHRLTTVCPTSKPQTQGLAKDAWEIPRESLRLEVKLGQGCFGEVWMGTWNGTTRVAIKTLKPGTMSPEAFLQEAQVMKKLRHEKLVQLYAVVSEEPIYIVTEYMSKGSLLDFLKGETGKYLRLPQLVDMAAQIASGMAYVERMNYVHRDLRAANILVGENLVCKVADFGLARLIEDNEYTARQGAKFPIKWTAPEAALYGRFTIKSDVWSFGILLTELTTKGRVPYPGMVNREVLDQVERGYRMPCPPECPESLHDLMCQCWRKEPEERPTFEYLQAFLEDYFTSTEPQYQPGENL
Chain of CDC2 (P06493 whole entry, species assumed): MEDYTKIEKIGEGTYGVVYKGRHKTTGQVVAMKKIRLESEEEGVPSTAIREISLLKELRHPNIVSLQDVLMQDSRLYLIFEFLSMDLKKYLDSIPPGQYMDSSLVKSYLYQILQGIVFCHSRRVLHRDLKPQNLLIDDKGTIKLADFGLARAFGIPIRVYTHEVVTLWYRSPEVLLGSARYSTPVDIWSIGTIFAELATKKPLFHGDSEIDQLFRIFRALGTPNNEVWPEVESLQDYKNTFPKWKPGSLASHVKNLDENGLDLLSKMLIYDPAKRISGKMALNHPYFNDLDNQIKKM
Chain of CDC2 (P14635 whole entry partner, species assumed): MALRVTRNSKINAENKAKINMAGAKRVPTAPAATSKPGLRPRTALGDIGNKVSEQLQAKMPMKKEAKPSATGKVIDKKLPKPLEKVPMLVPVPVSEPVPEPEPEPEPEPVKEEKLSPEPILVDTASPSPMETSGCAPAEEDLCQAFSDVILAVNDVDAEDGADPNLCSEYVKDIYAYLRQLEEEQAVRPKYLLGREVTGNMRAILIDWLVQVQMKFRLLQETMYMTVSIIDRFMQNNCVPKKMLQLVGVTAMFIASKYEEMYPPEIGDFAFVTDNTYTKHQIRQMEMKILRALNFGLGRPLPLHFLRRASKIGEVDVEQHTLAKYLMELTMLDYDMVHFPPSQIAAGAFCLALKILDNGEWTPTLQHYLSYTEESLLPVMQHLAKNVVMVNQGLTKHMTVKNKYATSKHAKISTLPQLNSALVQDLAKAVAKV
Chain of CK2 (P68400 whole entry): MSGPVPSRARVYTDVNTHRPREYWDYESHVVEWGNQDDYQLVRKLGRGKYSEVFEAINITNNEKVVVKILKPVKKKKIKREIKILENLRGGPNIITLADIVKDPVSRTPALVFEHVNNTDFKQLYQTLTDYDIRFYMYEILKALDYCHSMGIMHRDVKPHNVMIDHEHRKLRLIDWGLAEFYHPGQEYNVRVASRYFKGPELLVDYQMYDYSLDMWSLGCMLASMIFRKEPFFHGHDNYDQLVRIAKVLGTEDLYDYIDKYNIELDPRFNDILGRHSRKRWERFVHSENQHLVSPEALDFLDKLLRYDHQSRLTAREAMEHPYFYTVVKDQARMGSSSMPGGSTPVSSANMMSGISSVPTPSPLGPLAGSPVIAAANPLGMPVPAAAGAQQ

`N=C(N)N/N=C/c1ccc(Cl)cc1Cl` [KP-16735] showed an inhibition at 0.1 µM ([1]; 0.1 μM, corrected against the maximum observed inhibition) of 13%, an inhibition at 0.3 µM ([1]; 0.3 μM, corrected against the maximum observed inhibition) of -1% and an inhibition at 0.7 µM ([1]; 0.7 μM, corrected against the maximum observed inhibition) of 4%. For the same molecule, the inhibition at 1.6 µM ([1]; 1.6 μM, corrected against the maximum observed inhibition) was 18%, the inhibition at 4.1 µM ([1]; 4.1 μM, corrected against the maximum observed inhibition) was 32% and the inhibition at 10.2 µM ([1]; 10.2 μM, corrected against the maximum observed inhibition) was 69%. The inhibition at 25.6 µM ([1]; 25.6 μM, corrected against the maximum observed inhibition) was 85%, the inhibition at 64 µM ([1]; 64.0 μM, corrected against the maximum observed inhibition) was 99% and the inhibition at 160 µM ([1]; 160.0 μM, corrected against the maximum observed inhibition) was 102%. For the same molecule, the inhibition at 400 µM ([1]; 400.0 μM, corrected against the maximum observed inhibition) was 99%.

`Oc1ccc2c(c1)CC1NCCc3cc(O)c(O)c-2c31` (centres unmarked) [KP-21849, 5,6,6a,7-Tetrahydro-4H-dibenzo[de,g]quinoline-1,2,9-triol] was tested, and the “Effect on endothelial cell morphogenesis (in words)” value [2] was “profound effect on HUVEC cells”, the “inhibits ILK at” value [1] was 2 µM and the “Inhibition of SRC (in words)” value [3] was “does not significantly inhibit”. For the same molecule, the “Inhibition of GSK3β (in words)” value [4] was “does not significantly inhibit”, the “Inhibition of CDC2 (in words)” value [5] was “does not significantly inhibit” and the “Inhibition of CK2 (in words)” value [6] was “does not significantly inhibit”. For the same molecule, the “Inhibition of ERK1 (in words)” value [7] was “does not significantly inhibit”.
